≈ marks a conversion by molar mass, not a printed value.
Key:
Type in all cases: functional
[1] = system: Microsporum canis; test: Antifungal activity against Microsporum canis
[2] = system: Aspergillus fumigatus; test: Antifungal activity against Aspergillus fumigatus
[3] = system: Sporothrix schenckii; test: Antifungal activity against Sporothrix schenckii
[4] = system: Cryptococcus neoformans; test: Antifungal activity against Cryptococcus neoformans
[5] = system: Candida albicans; test: Antifungal activity against Candida albicans; details: for MIC: Candida albicans
[6] = system: Trichophyton mentagrophytes; test: Antifungal activity against Trichophyton mentagrophytes
[7] = system: Candida; test: Antifungal activity against Candida spp
[8] = system: Candida parapsilosis; test: Antifungal activity against Candida parapsilosis; details: Lodderomyces parapsilosis
[9] = Antifungal activity against Fonsecaea compacta
[10] = system: Candida tropicalis; test: Antifungal activity against Candida tropicalis
[11] = system: Trichophyton rubrum; test: Antifungal activity against Trichophyton rubrum
[12] = system: Aspergillus fumigatus; test: Ratio of compound MIC to itraconazole MIC for Aspergillus fumigatus AF980003
[13] = system: Candida albicans; test: Ratio of compound MIC to itraconazole MIC for Candida albicans CA980001
[14] = system: Candida albicans; test: Antifungal activity against Candida albicans CA980001
[15] = system: Aspergillus fumigatus; test: Antifungal activity against Aspergillus fumigatus AF980003
[16] = system: Trichophyton tonsurans; test: Antifungal activity against Trichophyton tonsurans
[17] = system: Aspergillus flavus; test: Antifungal activity against Aspergillus flavus; details: for MIC: Aspergillus flavus
[18] = system: Aspergillus ochraceus; test: Antifungal activity against Aspergillus ochraceus
[19] = system: Candida parapsilosis; test: Antifungal activity against Candida parapsilosis ATCC 22019; details: Lodderomyces parapsilosis
[20] = system: Aspergillus niger; test: Antifungal activity against Aspergillus niger
[21] = system: Fusarium oxysporum; test: Antifungal activity against Fusarium oxysporum
[22] = system: Trichoderma viride; test: Antifungal activity against Trichoderma viride
[23] = system: Aspergillus fumigatus; test: Antifungal activity against Aspergillus fumigatus assessed as growth inhibition
[24] = system: Aspergillus niger; test: Antifungal activity against Aspergillus niger assessed as growth inhibition
[25] = system: Microsporum; test: Antifungal activity against Microsporum […]
[26] = system: Pichia kudriavzevii; test: Antifungal activity against Candida krusei
[27] = system: Cryptococcus neoformans; test: Antifungal activity against Cryptococcus neoformans after 72 hrs by NCCLS broth microdilution method

In the case of `O=C1C(CO)=C(Sc2ccccc2)C(=O)c2ccccc21`, the MIC [1] is reported as 0.78 µg/mL (≈ 2.63 µM), the MIC [2] is reported as 0.78 µg/mL (≈ 2.63 µM) and the MIC [3] is reported as 0.78 µg/mL (≈ 2.63 µM). The MIC [4] was 0.78 µg/mL (≈ 2.63 µM), the MIC [5] was 0.78 µg/mL (≈ 2.63 µM) and the MIC [6] was 0.78 µg/mL (≈ 2.63 µM).
`O=C(O)CCSC1=C(CO)C(=O)c2ccccc2C1=O` showed an MIC [1] of 0.78 µg/mL (≈ 2.67 µM), an MIC [2] of 0.78 µg/mL (≈ 2.67 µM) and an MIC [3] of 0.78 µg/mL (≈ 2.67 µM). The MIC [4] was 0.78 µg/mL (≈ 2.67 µM), the MIC [5] was 0.78 µg/mL (≈ 2.67 µM) and the MIC [6] was 0.78 µg/mL (≈ 2.67 µM).
`COC(=O)C1(C)C2(C(=O)N(c3ccccc3)N=C2C)C1(c1ccccc1)c1ccccc1` (stereo unspecified) showed an MIC [7] of 25 µg/mL (≈ 58.9 µM).
Compound `CN(CC(O)(Cn1cncn1)c1ccc(F)cc1F)C1CC1` (stereo unspecified) has an MIC [8] of 0.125 µg/mL (≈ 0.405 µM), an MIC [9] of 0.125 µg/mL (≈ 0.405 µM) and an MIC [1] of 0.125 µg/mL (≈ 0.405 µM). It also gave an MIC [10] of 0.125 µg/mL (≈ 0.405 µM), an MIC [2] of 0.125 µg/mL (≈ 0.405 µM) and an MIC [4] of 0.125 µg/mL (≈ 0.405 µM). It also gave an MIC [5] of 0.125 µg/mL (≈ 0.405 µM) and an MIC [11] of 0.125 µg/mL (≈ 0.405 µM).
In the case of `N#Cc1ccc(N(CC(O)(Cn2cncn2)c2ccc(F)cc2F)C2CC2)cc1` (stereo unspecified), the MIC [8] is reported as 0.125 µg/mL (≈ 0.316 µM), the MIC [9] is reported as 0.125 µg/mL (≈ 0.316 µM) and the MIC [1] is reported as 0.125 µg/mL (≈ 0.316 µM). It also gave an MIC [10] of 0.125 µg/mL (≈ 0.316 µM), an MIC [2] of 0.125 µg/mL (≈ 0.316 µM) and an MIC [4] of 0.125 µg/mL (≈ 0.316 µM). For the same compound, the MIC [5] was 0.125 µg/mL (≈ 0.316 µM) and the MIC [11] was 0.125 µg/mL (≈ 0.316 µM).
With `Clc1ccccc1Cn1cc(Cn2ccnc2)c2cc(Br)ccc21` the Ratio [12] was 16, the Ratio [13] was 16 and the MIC [14] was 8 µg/mL (≈ 20 µM). The MIC [15] was 8 µg/mL (≈ 20 µM).
Work on `CCOC(=O)C1(C)C2(C(=O)N(c3ccccc3)N=C2C)C1(c1ccccc1)c1ccccc1` (stereo unspecified) yielded an MIC [7] of 25 µg/mL (≈ 57 µM).
With `Cc1ncc([N+](=O)[O-])n1CC(O)CCl` (stereo unspecified) [ORNIDAZOLE] the MIC [16] was 0.8 µg/mL (≈ 3.64 µM).
`N#CC1=C(N)OC2=C(SC3=NC4=C(C(=O)CCC4)C(c4ccc(F)cc4)N32)C1c1ccc(Cl)cc1` (stereo unspecified) showed an MIC [17] of 40 µg/mL (≈ 79.2 µM) and an MIC [18] of 40 µg/mL (≈ 79.2 µM).
Work on `Clc1ccc(CN(Cc2ccc(-c3ccccc3)cc2)n2ccnc2)c(Cl)c1` yielded an MIC [11] of 0.8 µg/mL (≈ 1.96 µM).
With `C[C@H](CCCN1C=NN(CC(O)(Cn2cncn2)c2ccc(F)cc2F)C1)[C@H]1CC[C@H]2[C@@H]3[C@H](O)C[C@@H]4CCCC[C@]4(C)[C@H]3CC[C@]12C` (stereo partly specified) the MIC [19] was 2.18 µg/mL (≈ 3.34 µM), the MIC [3] was 2.18 µg/mL (≈ 3.34 µM) and the MIC [5] was 2.18 µg/mL (≈ 3.34 µM).
`CC1=NN(c2ccccc2)C(=O)C12C(C)(C#N)C2(c1ccccc1)c1ccccc1` (stereo unspecified) showed an MIC [7] of 25 µg/mL (≈ 63.9 µM).
Work on `OC(Cn1cncn1)(Cn1cncn1)c1ccc(F)cc1F` [FLUCONAZOLE] yielded an MIC [4] of 0.53 µg/mL (≈ 1.73 µM).
With `CCCCCCCCCCCCCCCc1nnc(CCCCCCC/C=C/CC(O)CCCCCC)o1` (stereo unspecified) the “inhibition zone (IZ)” value [20] was 15 mm, the “inhibition zone (IZ)” value [21] was 15 mm and the “inhibition zone (IZ)” value [22] was 15 mm. The “inhibition zone (IZ)” value [5] was 15 mm.
In the case of `CC1=NN(c2ccccc2)C(=O)C12C(C(=O)OC(C)(C)C)C2(c1ccccc1)c1ccccc1` (stereo unspecified), the MIC [7] is reported as 25 µg/mL (≈ 55.2 µM).
With `N=C1SC(c2ccc(Cl)cc2)c2cnn(C(=O)c3ccc(Cl)cc3)c2C1=N` (stereo unspecified) the “growth inhibition (GI)” value [23] was 61% and the “growth inhibition (GI)” value [24] was 60%.
With `CCC(C)n1ncn(-c2ccc(N3CCN(c4ccc(OCC5COC(Cn6cncn6)(c6ccc(Cl)cc6Cl)O5)cc4)CC3)cc2)c1=O` (stereo unspecified) [ITRACONAZOLE] the MIC [8] was 0.0625 µg/mL (≈ 0.0886 µM), the MIC [7] was 2 µg/mL (≈ 2.83 µM) and the MIC [25] was 0.0625 µg/mL (≈ 0.0886 µM). The MIC [10] was 0.0625 µg/mL (≈ 0.0886 µM), the MIC [2] was 0.0625 µg/mL (≈ 0.0886 µM) and the MIC [4] was 0.0625 µg/mL (≈ 0.0886 µM). It also gave an MIC [11] of 0.0625 µg/mL (≈ 0.0886 µM).
For `O=C(Nc1ccccc1-c1nnc(-c2ccccc2)o1)c1ccccc1`, the “inhibition zone (IZ)” value [20] was 15 mm and the “inhibition zone (IZ)” value [17] was 11 mm.
With `COC(=O)Nc1nc2ccccc2[nH]1` [CARBENDAZIM] the “growth inhibition (GI)” value [23] was 92% and the “growth inhibition (GI)” value [24] was 90%.
Work on `NC(=O)c1ccc(COc2ccc(N3CCN(CC(O)(Cn4cncn4)c4ccccc4)CC3)cc2)cc1` (stereo unspecified) yielded an MIC [8] of 0.0625 µg/mL (≈ 0.122 µM), an MIC [25] of 0.0625 µg/mL (≈ 0.122 µM) and an MIC [10] of 0.0625 µg/mL (≈ 0.122 µM). The MIC [2] was 0.0625 µg/mL (≈ 0.122 µM), the MIC [4] was 0.0625 µg/mL (≈ 0.122 µM) and the MIC [11] was 0.0625 µg/mL (≈ 0.122 µM).
In the case of NYSTATIN, the inhibition zone (IZ) [7] is reported as 20 mm.
With `CCCn1cc(-c2ccc(Cl)cc2)c(C(c2ccccc2)n2ccnc2)c1` (stereo unspecified) the MIC [5] was 0.016 µg/mL (≈ 0.0426 µM).
Compound `Nc1nc(=O)[nH]cc1F` [FLUCYTOSINE] has an MIC [26] of 12.5 µg/mL (≈ 96.8 µM), an MIC ([20]; Aspergillus niger) of 12.5 µg/mL (≈ 96.8 µM) and an MIC [10] of 12.5 µg/mL (≈ 96.8 µM). The MIC [17] was 12.5 µg/mL (≈ 96.8 µM) and the MIC [5] was 12.5 µg/mL (≈ 96.8 µM).
`OC(CN1CCN(c2ccc(OCc3ccncc3)cc2)CC1)(Cn1cncn1)c1ccccc1` (stereo unspecified) showed an MIC [8] of 0.0625 µg/mL (≈ 0.133 µM), an MIC [25] of 0.0625 µg/mL (≈ 0.133 µM) and an MIC [10] of 0.0625 µg/mL (≈ 0.133 µM). For the same compound, the MIC [2] was 0.0625 µg/mL (≈ 0.133 µM), the MIC [4] was 0.0625 µg/mL (≈ 0.133 µM) and the MIC [11] was 0.0625 µg/mL (≈ 0.133 µM).
`CCC(c1cccc2ccccc12)N(C)C/C=C/C#CC(C)(C)C` (stereo unspecified) gave an MIC50 [27] of 0.5 µg/mL (≈ 1.56 µM).

Reference: ChEMBL document CHEMBL2169787, “The biology and chemistry of antifungal agents: a review” (2012)
